This is an account of results in patent publication US20080227768A1, “Crystal of 1-Methylcarbapenem Compound” (priority 2005, published 2008).

A short description of data set [1]: Storage Stability Test-1 (sealed brown glass bottle, 25° C., purity by HPLC). The data set is classed as physicochemical. The settings on record: HPLC peak area ratio. On the procedure: The crystalline form of the present invention obtained according to Example 2 and a crystalline form described in Japanese Patent Application Publication (Kokai) No. 2001-72681 ((1R,5S,6S)-6-[(1R)-1-hydroxyethyl]-1-methyl-2-[(2S,4S)-2-[(3S)-3-(2-guanidinoacetylamino)pyrrolidin-1-ylcarbonyl]-1-methylpyrrolidin-4-ylthio]-1-carbepen-2-em-3-carboxylic acid·monoethanolate·trihydrate, referred to as Crystalline form 1) were sealed in a brown glass bottle at a constant temperature of 25° C. followed by measurement of purity at the start of the test, one month later and two months later using high performance liquid chromatography (column: Develosil RPAQUEOUS 4.6×150 mm, column temperature: 60° C., developer flow rate: 1.0 ml/min, developer: 0.02 M aqueous potassium dihydrogen phosphate solution/acetonitrile=95/5 to 50/50). The resulting purities were represented as the ratios of the areas of the chromatographic peaks.

Data set [2] in a line: Storage Stability Test-2 (sealed brown glass bottle, 40° C., purity by HPLC). The data set is classed as physicochemical. The note with it: HPLC peak area ratio. On the procedure:
The crystalline form of the present invention obtained according to Example 2 and Crystalline form 1 were sealed in a brown glass bottle at a constant temperature of 40° C. followed by measurement of purity at the start of the test and one month later using high performance liquid chromatography (column: Develosil RPAQUEOUS 4.6×150 mm, column temperature: 60° C., developer flow rate: 1.0 ml/min, developer: 0.02 M aqueous potassium dihydrogen phosphate solution/acetonitrile=95/5 to 50/50). The resulting purities were represented as the ratios of the areas of the chromatographic peaks.

Data set [3] can be described thus: Water Solubility Test (time to completely dissolve). The settings on record: for Dissolving time: 300 mg of crystals sized through 150 μm mesh, 10 ml of water, 25° C., complete dissolution. The data set is classed as physicochemical. The source says:
The crystalline form of the present invention obtained according to Example 2 and a crystalline form described in Japanese Patent Application Publication (Kokai) No. 2001-72681 ((1R,5S,6S)-6-[(1R)-1-hydroxyethyl]-1-methyl-2-[(2S,4S)-2-[(3S)-3-(2-guanidinoacetylamino)pyrrolidin-1-ylcarbonyl]-1-methylpyrrolidin-4-ylthio]-1-carbepen-2-em-3-carboxylic acid, referred to as Crystalline form 2) were sized by passing through a 150 μm mesh filter followed by measurement of the amount of time required for 300 mg of the crystals to completely dissolve in 10 ml of water at 25° C.

For data set [4], the system named is Gram-negative bacteria and Gram-positive bacteria. The settings on record: cited from earlier work.

Where two headings read alike, the source gives them in different places.

For `C[C@@H](O)[C@H]1C(=O)N2C(C(=O)O)=C(S[C@H]3C[C@@H](C(=O)N4CC[C@H](NC(=O)CNC(=N)N)C4)N(C)C3)[C@H](C)[C@H]12` (stereo in doubt) [Crystalline form of present invention, (1R,5S,6S)-6-[(1R)-1-Hydroxyethyl]-1-methyl-2-[(2S,4S)-2-[(3S)-3-(2-guanidinoacetylamino)pyrrolidin-1-ylcarbonyl]-1-methylpyrrolidin-4-ylthio]-1-carbapen-2-em-3-carboxylic acid acetonate], in data set [1], the “Purity (%) 1 month later” value amounted to 98.43%, the “Purity (%) 2 months later” value is given as 98.40% and the “Purity (%) Start of test” value is given as 98.35%. Moreover, in data set [2], the “Purity 1 month later (%)” value was 98.35% and the “Purity at start of test (%)” value is reported as 98.35%. In addition, the “Dissolving time” value in data set [3] is 2.5 min. Further, the “solubility in water (in words)” value in data set [3] (compared with the known crystalline form) is recorded as “superior to that of the known crystalline form”.
For `CCO.C[C@@H](O)[C@H]1C(=O)N2C(C(=O)O)=C(S[C@H]3C[C@@H](C(=O)N4CC[C@H](NC(=O)CNC(=N)N)C4)N(C)C3)[C@H](C)[C@H]12.O.O.O` [Crystalline form 1, (1R,5S,6S)-6-[(1R)-1-hydroxyethyl]-1-methyl-2-[(2S,4S)-2-[(3S)-3-(2-guanidinoacetylamino)pyrrolidin-1-ylcarbonyl]-1-methylpyrrolidin-4-ylthio]-1-carbepen-2-em-3-carboxylic acid·monoethanolate·trihydrate, reference compound], in data set [1], the “Purity (%) 1 month later” value was found to be 98.35%, the “Purity (%) 2 months later” value was 98.06% and the “Purity (%) Start of test” value is recorded as 98.45%. Moreover, in data set [2], the “Purity 1 month later (%)” value is listed as 98.26% and the “Purity at start of test (%)” value is reported as 98.45%.
For the compound `C[C@@H](O)[C@H]1C(=O)N2C(C(=O)O)=C(S[C@H]3C[C@@H](C(=O)N4CC[C@H](NC(=O)CNC(=N)N)C4)N(C)C3)[C@H](C)[C@H]12` [Crystalline form 2, (1R,5S,6S)-6-[(1R)-1-hydroxyethyl]-1-methyl-2-[(2S,4S)-2-[(3S)-3-(2-guanidinoacetylamino)pyrrolidin-1-ylcarbonyl]-1-methylpyrrolidin-4-ylthio]-1-carbepen-2-em-3-carboxylic acid, reference compound], the “Dissolving time” value in data set [3] is reported as 8.0 min.
For the compound `C[C@@H](O)[C@H]1C(=O)N2C(C(=O)O)=C(S[C@H]3C[C@@H](C(=O)N4CC[C@H](NC(=O)CNC(=N)N)C4)N(C)C3)[C@H](C)[C@H]12` [compound (I), (1R,5S,6S)-6-[(1R)-1-hydroxyethyl]-1-methyl-2-[(2S,4S)-2-[(3S)-3-(2-guanidinoacetylamino)pyrrolidin-1-ylcarbonyl]-1-methylpyrrolidin-4-ylthio]-1-carbapen-2-em-3-carboxylic acid], the antibacterial activity result was “potent antibacterial activity” in data set [4] (from Patent Documents 1 and 2, listed as formula (I)); “excellent antibacterial activity” in data set [4] (from Patent Documents 1 and 2).
